Patent publication EP2745708A1, “Antidepressant effect of ß-hydroxy-ß-methylbutyrate” (Abbott Laboratories, Inc., priority 2012, dated 2014)

Test system: rats
Assay: Forced swimming test (FST) in rats
Assay type: in vivo
Conditions: forced swim test, oral 250 mg/kg or 500 mg/kg body weight after pre-swim and four hours and one hour prior to 5 minute test swim, two independent experiments
Protocol: The antidepressant effect of HMB was evaluated using the forced swimming test (FST) using the procedure described by Porsolt et al. (Eur. J. Pharmacol. 47(4). 379-91 (1978)). To begin the experiment, rats were individually placed inside vertical cylinders (height 40 cm; diameter 21.5 cm) containing 30 cm of water at 35 °C for 15 minutes (i.e., "pre-swim). Following this pre-swim period, the rats were removed and allowed to dry in a heated enclosure before returning to their cages. The rats were then orally administered a dose of either 250 mg/kg body weight or 500 mg/kg body weight HMB.
Twenty-four hours later, rats were submitted to the test swim, in which the rats were again placed in the cylinder for 5 minutes. Test swims were videotaped and subsequently assessed for latency to immobility, which is the point at which no movements were observed and the rat was in the "deadman" position (i.e., head up, tail down, front legs slightly hunched, and rear legs pointed downwards). Rats were orally administered their respective doses of either 250 mg/kg body weight or 500 mg/kg body weight of HMB four hours and one hours prior to the swim test.

SMILES: CC(C)(O)CC(=O)O [HMB, 3-hydroxy-3-methylbutanoic acid]
- latency to immobility: significantly increased
